# Assay results published in patent US6479056B1, “Live vaccine constituting minor risk for humans” (priority 1994, dated 2002).
# Tested on: wild strains
# Test: MHK of antibiotics for wild strains
# Assay type: cell-based, Salmonella
row,Compound,MHK
1,O=C(N[C@H](CO)[C@H](O)c1ccc([N+](=O)[O-])cc1)C(Cl)Cl [chloramphenicol],(Berlin-Chemie) 2.0 ug/ml
2,O=C(O)c1cn(C2CC2)c2cc(N3CCNCC3)c(F)cc2c1=O [ciprofloxacin],(Bayer) wild strains MHK 0.05 ug/ml
3,CCn1cc(C(=O)O)c(=O)c2ccc(C)nc21 [nalidixic acid],"(CHINOIN, Budapest) wild strains MHK 6.2 ug/ml"
4,CC[C@H]1OC(=O)[C@H](C)[C@@H](O[C@H]2C[C@@](C)(OC)[C@@H](O)[C@H](C)O2)[C@H](C)[C@@H](O[C@@H]2O[C@H](C)C[C@H](N(C)C)[C@H]2O)[C@](C)(O)C[C@@H](C)C(=O)[C@H](C)[C@@H](O)[C@]1(C)O [erythromycin],(Abbott) wild strains MHK 60.0 ug/ml
5,[H]/N=C(/N)N[C@H]1[C@H](O)[C@@H](O)[C@H](O[C@@H]2O[C@@H](C)[C@](O)(C=O)[C@H]2O[C@@H]2O[C@@H](CO)[C@H](O)[C@@H](O)[C@@H]2NC)[C@@H](N/C(N)=N\[H])[C@@H]1O [streptomycin],(Jenapharm) wild strains MHK 6.2 ug/ml
6,C[C@H]1c2cccc(O)c2C(=O)C2=C(O)[C@]3(O)C(=O)C(C(N)=O)=C(O)[C@@H](N(C)C)[C@@H]3[C@@H](O)[C@@H]21 [doxycycline],(Jenapharm) wild strains MHK 4.0 ug/ml
